Measured values taken from patent US20170172959A1, “D-SERINE FOR THE TREATMENT OF VISUAL SYSTEM DISORDERS” (Allergan, Inc., priority 2011, published 2017).
“Also recorded” adds a separate entry of the source.

What was measured:
[1] = test system: primary visual cortex of adult rats; test: LTP in visual cortex slice (fEPSP amplitude after theta burst stimulation); type: cell-based; settings: adult Sprague Dawley rat visual cortex slices; compound infused 15 minutes before LTP induction; LTP values at 30 minutes after induction; FIG. 1
Experimental: LTP in Visual Cortex Slice: Following decapitation of the rat, the brain was rapidly removed and immersed in ice-cold artificial cerebrospinal fluid (ACSF) containing 124 mM NaCl, 3 mM KCl, 1.25 mM KH2PO4, 3.4 mM CaCl2, 2.5 mM MgSO4, 26 mM NaHCO3, and 10 mM D-glucose. A block of visual cortex was created by removing the frontal 2/3 portion of the brain and the cerebellum. Coronal visual cortex slices of 375 μm were prepared from adult Sprague Dawley (SD) rats using a vibratome (VT 1000 S, Leica). The slices were maintained in an interface recording chamber perfused with preheated ACSF. Slices were continuously perfused with this solution at a rate of 1.00-1.50 ml/min while the surface of the slices was exposed to warm, humidified 95% O2/5% CO2 and maintained at 31±1° C. Visual cortex slices were allowed to recover for 1 hr before recording began. […] This was repeated 2 additional times with a 1 minute intertrain interval, and the level of LTP was recorded for at least 30 min. Changes in amplitude of the synaptic response were used to measure the extent of LTP because it was determined to be the more consistent parameter than the slope of the response. […] Statistical comparisons were done with LTP values recorded at 30 minutes after induction.

[2] = test system: slices of kitten visual cortex; settings: Neuroscience Letters 303 (2001) 95-98; cited from earlier work
[3] = test system: blue-light treated Long-Evans rats; test: Contrast sensitivity by sweep VEP in rats with retinal damage induced by blue-light exposure; type: in vivo, rat; settings: 100 or 600 mg/kg injected, saline control, cross-over; measured 30 minutes after treatment; spatial frequency 0.575 cpd; sixteen (600 mg/kg) and fifty weeks (100 mg/kg) after blue-light treatment; FIG. 3
Experimental: Two doses of D-serine were tested and vehicle (saline) was used as a control. Half of the rats were injected with either 100 or 600 mg/kg D-serine and the other half with saline in the first test; cross-over exposure took place one week later; the spatial frequencies were fixed at 0.575 cycles per degree (cpd). In FIG. 3, the mean values of contrast sensitivity are shown for rats treated with D-serine or saline, with a baseline taken prior to treatment (“pre”) and the contrast sensitivity measured 30 minutes after treatment (“post”).
Sweep visually evoked potential (sweep VEP, sVEP), which was first introduced by Regan in 1973, has become an important technique to measure visual function (VF). It is an objective method that can be used to assess contrast sensitivity (CS) in infants, young children and people with special needs. It was adapted to measure CS in animals.
VEP recording: The recording electrodes were permanently implanted into the right visual cortex of Long Evans rats at lambda and 4.5 mm lateral to the midline, to a depth of 800 microns (layer III/IV). […]
Visual stimuli: Stimuli were presented on a CRT computer monitor and consist of full-field sine-wave gratings at fixed special frequency (0.5, 0.575 or 0.65 cpd in FIG. 1 and 0.575 cpd in FIG. 2), reversing at 6.25 Hz. […] Contrast sensitivity (CS) is calculated as 1/CT.

N[C@H](CO)C(=O)O [D-serine]
long-term potentiation (LTP) in the primary visual cortex [1]: dose-dependently facilitates long-term potentiation (LTP); also recorded: significantly enhanced the LTP | LTP enhancement by D-serine alone [2]: did not enhance LTP | effect on LTP suppression by the co-agonist site antagonist 7-chlorokynurenic acid [2]: only produced a reversal of the suppressant effects | contrast sensitivity [3]: improved the contrast sensitivity; also recorded: dose-dependent improvement in contrast sensitivity; also recorded: enhances contrast sensitivity and visual function
